Literature values in article PMC10928227, “Assessing biologic/toxicologic effects of extractables from plastic contact materials for advanced therapy manufacturing using cell painting assay and cytotoxicity screening” (Scientific Reports, 2024).
Where two headings read alike, the source gives them in different places.

How the values were obtained:
[1] = cited from earlier work; for Gene mutation, Mammalian Cell Gene Mutation Assay: T-lymphoma Cell Lines
[2] = cited from earlier work; for Chromosome aberration, Micronucleus Assay / DNA damage and repair, COMET or Alkaline Elution / DNA damage and repair, Single Cell Gel Electrophoresis (comet) Assay: in Vivo; for DNA damage and repair, Single Cell Gel Electrophoresis (comet) Assay: ref Yu F. Sasaki et. al., 2000, Critical Reviews in Toxicology,30(6),Pp.629-799
[3] = Salmonella typhimurium, No Strain Information, in Vitro, Database: Genotoxicity OASIS, ref Mutation Research 584 (2005) 1-256, Kirkland et al.
[4] = Salmonella typhimurium, Strain TA 97, in Vitro, Database: Bacterial mutagenicity ISSSTY, ref CCRIS database,Toxnet databases (Romualdo Benigni)
[5] = Salmonella typhimurium, Strain TA 98, in Vitro, Database: Bacterial mutagenicity ISSSTY, ref CCRIS database,Toxnet databases (Romualdo Benigni)
[6] = Salmonella typhimurium, Strain TA 98, in Vitro, Database: Genotoxicity OASIS, ref P&G
[7] = Salmonella typhimurium, Strain TA 100, in Vitro, Database: Bacterial mutagenicity ISSSTY, ref CCRIS database,Toxnet databases (Romualdo Benigni)
[8] = Salmonella typhimurium, Strain TA 100, in Vitro, Database: Genotoxicity OASIS, ref P&G
[9] = Salmonella typhimurium, Strain TA 102, in Vitro, Database: Bacterial mutagenicity ISSSTY, ref CCRIS database,Toxnet databases (Romualdo Benigni)
[10] = Salmonella typhimurium, Strain TA 1535, in Vitro, Database: Bacterial mutagenicity ISSSTY, ref CCRIS database,Toxnet databases (Romualdo Benigni)
[11] = Salmonella typhimurium, Strain TA 1535, in Vitro, Database: Genotoxicity OASIS, ref P&G
[12] = Salmonella typhimurium, Strain TA 1537, in Vitro, Database: Bacterial mutagenicity ISSSTY, ref CCRIS database,Toxnet databases (Romualdo Benigni)
[13] = Salmonella typhimurium, Strain TA 1537, in Vitro, Database: Genotoxicity OASIS, ref P&G
[14] = in Vitro, Database Genotoxicity & Carcinogenicity ECVAM, ref EURL ECVAM genotoxicity and carcinogencity database, Madia F et al, 2020
[15] = in Vitro, Database Genotoxicity OASIS, ref Mutation Research 584 (2005) 1-256, Kirkland et al.
[16] = in Vitro, No Strain Information, Database Genotoxicity OASIS, ref Mutation Research 584 (2005) 1-256, Kirkland et al.
[17] = in Vitro, Salmonella typhimurium, Strain TA 97, Database Genotoxicity OASIS, ref P&G
[18] = in Vitro, Salmonella typhimurium, Strain TA 98, Database Genotoxicity OASIS, ref P&G
[19] = in Vitro, Salmonella typhimurium, Strain TA 100, Database Genotoxicity OASIS, ref P&G
[20] = in Vitro, Salmonella typhimurium, Strain TA 102, OECD Guideline 471, Database Genotoxicity OASIS, ref CCRIS database,Toxnet databases
[21] = in Vitro, Salmonella typhimurium, Strain TA 1535, Database Genotoxicity OASIS, ref P&G
[22] = in Vitro, Salmonella typhimurium, Strain TA 1537, Database Genotoxicity OASIS, ref P&G
[23] = in Vitro, Salmonella typhimurium, Strain TA 1538, Database Genotoxicity OASIS, ref P&G
[24] = Database Genotoxicity & Carcinogenicity ECVAM, ref EURL ECVAM genotoxicity and carcinogencity database, Madia F et al, 2020
[25] = in Vitro, Chinese hamster, Chinese Hamster Lung (CHL), Duration 24÷48 h, Database Genotoxicity OASIS, ref Sofuni, T., Ed. (1998). Data Book of Chromosomal Aberration Test In Vitro, Revised Edition
[26] = in Vitro, Salmonella typhimurium, No Strain Information, Database Genotoxicity OASIS, ref Journal of Medicinal Chemistry 48 (1), pp. 312-32, 25, Kazius J, McGuire R., Bursi R

SMILES | Gene mutation, Bacterial Reverse Mutation Assay (e.g. Ames Test) [1, 3] | Gene mutation, Bacterial Reverse Mutation Assay (e.g. Ames Test) [1, 5] | Gene mutation, Bacterial Reverse Mutation Assay (e.g. Ames Test) [1, 6] | Gene mutation, Bacterial Reverse Mutation Assay (e.g. Ames Test) [1, 7] | Gene mutation, Bacterial Reverse Mutation Assay (e.g. Ames Test) [1, 8] | Gene mutation, Bacterial Reverse Mutation Assay (e.g. Ames Test) [1, 9] | Gene mutation, Bacterial Reverse Mutation Assay (e.g. Ames Test) [1, 10] | Gene mutation, Bacterial Reverse Mutation Assay (e.g. Ames Test) [1, 11] | Gene mutation, Bacterial Reverse Mutation Assay (e.g. Ames Test) [1, 12] | Gene mutation, Bacterial Reverse Mutation Assay (e.g. Ames Test) [1, 13] | Chromosome aberration, Micronucleus Assay [1, 14] | Gene mutation, Bacterial Reverse Mutation Assay (e.g. Ames Test) [1, 14] | Gene mutation, Mammalian Cell Gene Mutation (MLA HPRT) [1, 14] | Chromosome aberration, in Vitro Mammalian Chromosome Aberration Test [1, 16] | Gene mutation, Bacterial Reverse Mutation Assay (e.g. Ames Test) [1, 17] | Gene mutation, Bacterial Reverse Mutation Assay (e.g. Ames Test) [1, 18] | Gene mutation, Bacterial Reverse Mutation Assay (e.g. Ames Test) [1, 19] | Gene mutation, Bacterial Reverse Mutation Assay (e.g. Ames Test) [1, 20] | Gene mutation, Bacterial Reverse Mutation Assay (e.g. Ames Test) [1, 21] | Gene mutation, Bacterial Reverse Mutation Assay (e.g. Ames Test) [1, 22] | other results
Oc1ccccc1 [108-95-2] | Negative | Negative | Negative | Negative | Negative | Negative | Negative | Negative | Negative | Negative | Positive | Negative | Positive | Positive | Negative | Negative | Negative | Negative | Negative | Negative | Gene mutation, Bacterial Reverse Mutation Assay (e.g. Ames Test) [1, 4]: Negative; Gene mutation, Bacterial Reverse Mutation Assay (e.g. Ames Test) ([1]; Salmonella typhimurium, Strain TA 104, in Vitro, Database: Bacterial mutagenicity ISSSTY, ref CCRIS database,Toxnet databases (Romualdo Benigni)): Negative; Gene mutation, Bacterial Reverse Mutation Assay (e.g. Ames Test) ([1]; Salmonella typhimurium, Strain TA 7001, in Vitro, Database: Bacterial mutagenicity ISSSTY, ref CCRIS database,Toxnet databases (Romualdo Benigni)): Negative; Gene mutation, Bacterial Reverse Mutation Assay (e.g. Ames Test) ([1]; Salmonella typhimurium, Strain TA 7002, in Vitro, Database: Bacterial mutagenicity ISSSTY, ref CCRIS database,Toxnet databases (Romualdo Benigni)): Negative; Gene mutation, Bacterial Reverse Mutation Assay (e.g. Ames Test) ([1]; Salmonella typhimurium, Strain TA 7003, in Vitro, Database: Bacterial mutagenicity ISSSTY, ref CCRIS database,Toxnet databases (Romualdo Benigni)): Negative; Gene mutation, Bacterial Reverse Mutation Assay (e.g. Ames Test) ([1]; Salmonella typhimurium, Strain TA 7004, in Vitro, Database: Bacterial mutagenicity ISSSTY, ref CCRIS database,Toxnet databases (Romualdo Benigni)): Negative; Gene mutation, Bacterial Reverse Mutation Assay (e.g. Ames Test) ([1]; Salmonella typhimurium, Strain TA 7005, in Vitro, Database: Bacterial mutagenicity ISSSTY, ref CCRIS database,Toxnet databases (Romualdo Benigni)): Negative; Gene mutation, Bacterial Reverse Mutation Assay (e.g. Ames Test) ([1]; Salmonella typhimurium, Strain TA 7006, in Vitro, Database: Bacterial mutagenicity ISSSTY, ref CCRIS database,Toxnet databases (Romualdo Benigni)): Negative; Genetic Toxicity, Gene mutation (Bacterial Reverse Mutation Assay, e.g. Ames Test) ([1]; Salmonella typhimurium, strain TA 100, in Vitro, scale Gene mutation I, ref CCRIS database, Toxnet databases, Database: Bacterial mutagenicity ISSSTY (Romualdo Benigni, 2011)): Negative; Chromatids exchanges/ recombination, Sister Chromatid Exchange (SCE) [1, 14]: Positive; DNA damage and repair, DNA Adducts [1, 14]: Positive; Gene mutation, in Vitro Mammalian Cell Micronucleus Test [1, 15]: Positive; Gene mutation, Bacterial Reverse Mutation Assay (e.g. Ames Test) [1, 23]: Negative; Gene mutation, Mammalian Cell Gene Mutation Assay [1, 15]: Positive; Genetic Toxicity, unscheduled DNA synthesis (UDS in Vitro) ([1]; in Vitro, scale Mutagenicity I (ECVAM), ref EURL ECVAM genotoxicity and carcinogencity database, Madia F et al, 2020): Positive; Chromosome aberration, in Vivo Mammalian Chromosome Aberration Test [2, 24]: Negative; Chromosome aberration, Micronucleus Assay [2, 24]: Positive; DNA damage and repair, COMET or Alkaline Elution [2, 24]: Positive; Chromosome aberration, Micronucleus Assay ([2]; Database Genotoxicity OASIS, ref Ciranni, R., Barale, & Marrazzini, A. (1988), Mutat Res, 208, 61-67): Negative; DNA damage and repair, Single Cell Gel Electrophoresis (comet) Assay ([2]; Database Genotoxicity OASIS): Positive
CC(C)(c1ccc(O)cc1)c1ccc(O)cc1 [80-05-7] | Negative | Negative | Negative | Negative | Negative | Negative | Negative | Negative | Negative | Negative | Negative | Negative | Inadequate | Positive | Negative | Negative | Negative | Negative | Negative | Negative | Gene mutation, Bacterial Reverse Mutation Assay (e.g. Ames Test) ([1]; Salmonella typhimurium, Strain TA 97A, in Vitro, Database: Bacterial mutagenicity ISSSTY, ref CCRIS database,Toxnet databases (Romualdo Benigni)): Negative; Chromosome aberration, in Vitro Mammalian Chromosome Aberration Test ([1]; in Vitro, Chinese hamster, Chinese Hamster Lung (CHL), Duration 6÷18 h, Database Genotoxicity OASIS, ref Sofuni, T., Ed. (1998). Data Book of Chromosomal Aberration Test In Vitro, Revised Edition): Negative; Chromosome aberration, in Vitro Mammalian Chromosome Aberration Test [1, 25]: Negative; Chromosome aberration, in Vitro Mammalian Chromosome Aberration Test [1, 14]: Positive; Gene mutation, Bacterial Reverse Mutation Assay (e.g. Ames Test) [1, 26]: Negative; Gene mutation, Bacterial Reverse Mutation Assay (e.g. Ames Test) [1, 23]: Negative; Gene mutation, Mammalian Cell Gene Mutation Assay [1, 15]: Negative; Chromosome aberration, in Vivo Mammalian Chromosome Aberration Test [2, 24]: Positive; Chromosome aberration, Micronucleus Assay [2, 24]: Negative
OCc1ccccc1 [100-51-6] | Negative | Negative | Negative | Negative | Negative | Negative | Negative | Negative | Negative | Negative | Negative | Negative | Inadequate | Positive | Negative | Negative | Negative | Negative | Negative | Negative | Gene mutation, Bacterial Reverse Mutation Assay (e.g. Ames Test) [1, 4]: Negative; Chromosome aberration, in Vitro Mammalian Chromosome Aberration Test ([1]; in Vitro, Chinese hamster, CHO Cells, Database Genotoxicity OASIS, ref ECHA, Registration dossier): Positive; Chromosome aberration, in Vitro Mammalian Chromosome Aberration Test [1, 25]: Negative; Chromosome aberration, in Vitro Mammalian Chromosome Aberration Test [1, 14]: Negative; Gene mutation, Bacterial Reverse Mutation Assay (e.g. Ames Test) [1, 26]: Negative; Gene mutation, Bacterial Reverse Mutation Assay (e.g. Ames Test) [1, 23]: Negative; Gene mutation, Mammalian Cell Gene Mutation Assay [1, 15]: Positive; Chromosome aberration, Micronucleus Assay [2, 24]: Negative; DNA damage and repair, COMET or Alkaline Elution [2, 24]: Positive; Chromosome aberration, Micronucleus Assay ([2]; Database Genotoxicity OASIS, ref Hayashi M., et al., Food Chem. Toxicol., 26(6), 487-500, 1988): Negative; DNA damage and repair, Single Cell Gel Electrophoresis (comet) Assay ([2]; Database Genotoxicity OASIS): Negative
